Reference: paper PMC7382742, “Identification of Potential Inhibitors of Calcium/Calmodulin-Dependent Protein Kinase IV from Bioactive Phytoconstituents” (Oxidative Medicine and Cellular Longevity, 2020)

Tests used:
[1] = molecular target: T1, Calcium/calmodulin-dependent protein kinase IV (CaMKIV) (Homo sapiens, UniProt Q16566); experiment: malachite green (BIOMOL Green) ATPase inhibition assay with recombinant refolded CaMKIV; also intrinsic fluorescence quenching (binding constant […] ^-1); assay type: biochemical
T1 construct: gene CAMK4; CaMKIV kinase domain
T1 sequence (Q16566 46-300 limits assumed): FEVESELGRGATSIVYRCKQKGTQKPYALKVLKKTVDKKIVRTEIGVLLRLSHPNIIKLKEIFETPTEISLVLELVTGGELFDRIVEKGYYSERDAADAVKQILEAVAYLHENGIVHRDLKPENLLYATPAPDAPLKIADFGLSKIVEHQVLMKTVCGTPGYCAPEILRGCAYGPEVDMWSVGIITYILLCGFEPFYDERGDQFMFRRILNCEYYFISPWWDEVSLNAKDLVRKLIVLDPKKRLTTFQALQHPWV

[2] = molecular target: T1, Calcium/calmodulin-dependent protein kinase IV (CaMKIV); experiment: malachite green (BIOMOL Green) ATPase inhibition assay with recombinant refolded CaMKIV; also intrinsic fluorescence quenching (Ksv […] ^-1); assay type: biochemical

SMILES	IC50 [1] [µM]	IC50 [2] [µM]
O=c1oc2c(O)c(O)cc3c(=O)oc4c(O)c(O)cc1c4c23 [EA, ellagic acid]	39.7 ± 8.6	–
O=c1c(O)c(-c2ccc(O)c(O)c2)oc2cc(O)cc(O)c12 [quercetin]	–	61.3 ± 5.4
